# Measurements published in patent US20020161013A1, “Method of local anesthesia and analgesia” (priority 2001, published 2002).
# Structures can show the parent of a compound that is named as a salt. Where two headings read alike, the source gives them in different places.
# Columns and labels:
# rabbit eyes [1] = test system: rabbit eyes; parameters: species or system New Zealand white rabbits; conditions: in vivo
# rabbit eyes [2] = conditions: in vivo
# [3] = cited from earlier work
# rabbits [4] = test system: rabbits; parameters: species or system New Zealand white rabbits; conditions: rabbit, in vivo
# rabbits [5] = test system: rabbits; parameters: species or system New Zealand white rabbits; conditions: rabbit, in vivo; remark: listed apart in the source
smiles,measurement,setting,value
"CCN(CC)CC(=O)Nc1c(C)cccc1C [lidocaine, lidocaine hydrochloride, reference compound]",duration of action,rabbit eyes [1],0.34 h
same,onset,rabbit eyes [1],1.94 min
same,magnitude of ERG b wave versus controls,rabbit eyes [2],Neither were differences found
same,duration of action,[3]; in vivo,over 20 minutes
same,onset,[3]; in vivo,about 2 minutes
CCCCN1CCCCC1C(=O)Nc1c(C)cccc1C (stereo not shown) [bupivacaine],residual diplopia next morning,"[3]; bupivacaine, ophthalmic applications",up to 70 % of patients
same,duration of action,"[3]; bupivacaine, peripheral nerve block",≤ 24 h
"NC1=N[C@H](O)[C@H]2[C@H]3O[C@]4(O)O[C@@H]([C@@H](O)[C@@]2(N1)[C@@H]4O)[C@]3(O)CO [TTX, tetrodotoxin]",abnormalities in other animals of the group,rabbits [4],No significant abnormalities
same,adverse signs in the TTX-treated eye,rabbits [4],"conjunctival congestion, hydrops (++) and lacrimation"
same,local anesthesia,rabbits [4],local anesthesia to some extent
same,toxic signs observed,rabbits [4],"Signs of convulsion, rigidity and death"
same,local anesthesia by retrobulbar injection compared with lidocaine,rabbit eyes [1],much more potent
same,local anesthesia effect,rabbit eyes [1],weak effect
same,local anesthesia in the treated eyes,rabbit eyes [1],showed local anesthesia in the treated eyes to various extents
same,general examination findings,rabbits [5],"No changes of food-taking pattern, movement, respiration or alertness"
same,toxic signs observed,rabbits [5],"Signs of convulsion, rigidity and death"
